The source of these data is paper doi:10.1101/2024.02.03.578754v1 (biorxiv, 2024).

SMILES strings stand for the structures. pIC50: −log10 of the molar value.

T1 sequence (P47998 whole entry): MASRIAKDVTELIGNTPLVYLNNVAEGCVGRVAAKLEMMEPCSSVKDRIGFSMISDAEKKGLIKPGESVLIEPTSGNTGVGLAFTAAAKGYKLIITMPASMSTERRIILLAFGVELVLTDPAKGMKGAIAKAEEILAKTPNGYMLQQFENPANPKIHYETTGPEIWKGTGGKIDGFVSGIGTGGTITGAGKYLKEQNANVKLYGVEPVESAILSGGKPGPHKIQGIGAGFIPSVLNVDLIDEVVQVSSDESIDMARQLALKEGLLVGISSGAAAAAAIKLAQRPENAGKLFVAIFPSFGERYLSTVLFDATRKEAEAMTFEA

One assay concerns the target T1, OASS (O-acetylserine sulfhydrylase) (Arabidopsis thaliana, UniProt P47998). In words: fluorescence polarization competition. The assay is classed as binding.
Conditions: not given
For orientation: In fluorescence polarisation assays a small probe gives low polarisation when free and higher when bound to something large.
On to `CC(C)Cc1ccc(-c2csc(NC(=O)c3ccccc3-c3ccccc3C(=O)O)n2)cc1` [PJ14], for which the pIC50 – broadly, the negative decadic logarithm of the IC50, by convention in mol/L – was 5.27. `O=C(O)c1ccccc1-c1ccccc1C(=O)Nc1nc(-c2ccc(Cl)cc2Cl)cs1` [PJ15]: the pIC50 is 5.33. On the same count and under the same terms, the value for `COc1ccc(-c2cc(NC(=O)c3ccccc3-c3ccccc3C(=O)O)n(CCO)n2)cc1` [PJ34] was 4.30.

The next assay addresses T1, OASS (O-acetylserine sulfhydrylase). Put plainly: biochemical.
Conditions: not given
Molecule `NCCc1ccc(-c2csc(NC(=O)c3ccccc3-c3ccccc3C(=O)O)n2)cc1` [PJ13] had a pIC50 of 5.70. Same read-out and setting: with `CC(C)Cc1ccc(-c2csc(NC(=O)c3ccccc3-c3ccccc3C(=O)O)n2)cc1` [PJ14] the figure was 5.32; with `O=C(Nc1cccc(NC(=O)c2ccccc2-c2ccccc2C(=O)O)c1)c1nccs1` [compound 11, 11], 5.00. Same read-out and setting: with `Nc1cc(F)ccc1-c1csc(NC(=O)c2ccccc2-c2ccccc2C(=O)O)n1` [compound 17] the figure was 5.57. `COc1ccc(-c2nc(NC(=O)c3ccccc3-c3ccccc3C(=O)O)sc2C)cc1` [compound 33, 33]: the pIC50 was 5.17.

The assay is the same for the next values; noted with them: read-out: FP IC50; inhibitor.
For the molecule `O=C(O)c1ccccc1-c1ccccc1C(=O)Nc1cccc(-c2nc3ccccc3[nH]2)c1` [PJ8], the pIC50 was 5.39. `O=C(O)c1ccccc1-c1cccnc1C(=O)Nc1nc(-c2ccc(Cl)cc2Cl)cs1` [compound 18]: the pIC50 is 4.91.
